The supplement of paper PMC10307832

Assays:
Assay in all cases: relative viability (nuclei count vs DMSO), 5 days (fraction); higher = more cells survive
[1] = compound: C1CC1C(=O)NC2=NNC3=C2C=CC(=C3)C4=CC(=CC=C4)C(=O)NC5CC5 [XMD13-2] + COc1cccc2cc(-c3nc([C@H]4CC[C@H](C(=O)O)CC4)n4ncnc(N)c34)[nH]c12 [OSI-027] (partner 0.5 µM)
Procedure, shortened: (§1)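 Lung cancer cell lines, seeded in 1536-well plates, were treated the following day by pin tool with a single drug or with five library-drug doses (not always all listed) in √10 steps on top of a fixed anchor-drug dose. Cells were fixed and nuclei stained in one step after 5 days, and nuclei were counted. Relative viability is the nuclei count for treated wells divided by that for vehicle wells, reported as medians of duplicate plates.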

[2] = compound: C1CC1C(=O)NC2=NNC3=C2C=CC(=C3)C4=CC(=CC=C4)C(=O)NC5CC5 [XMD13-2] + Nc1ncn([C@H]2C[C@H](O)[C@@H](CO)O2)c(=O)n1 [Decitabine] (partner 2 µM)
Procedure, shortened: as §1

[3] = compound: Cc1ccc(C(=O)Nc2cccc(C(F)(F)F)c2)cc1Nc1cncc(C(N)=O)c1 [ALW-II-49-7] + Nc1nc2[nH]cc(CCc3ccc(C(=O)N[C@@H](CCC(=O)O)C(=O)O)cc3)c2c(=O)[nH]1 [Pemetrexed] (partner 0.2 µM)
Procedure, shortened: as §1

[4] = compound: Cc1nc(Nc2ncc(C(=O)Nc3c(C)cccc3Cl)s2)cc(N2CCN(CCO)CC2)n1 [Dasatinib] + COc1cccc2cc(-c3nc([C@H]4CC[C@H](C(=O)O)CC4)n4ncnc(N)c34)[nH]c12 [OSI-027] (partner 0.5 µM)
Procedure, shortened: as §1

| Cell Line | relative viability ([1]; first compound 0.05 µM) | relative viability ([1]; first compound 0.1581 µM) | relative viability ([1]; first compound 0.5 µM) | relative viability ([1]; first compound 1.581 µM) | relative viability ([1]; first compound 5 µM) | relative viability ([2]; first compound 0.05 µM) | relative viability ([2]; first compound 0.1581 µM) | relative viability ([2]; first compound 0.5 µM) | relative viability ([2]; first compound 1.581 µM) | relative viability ([2]; first compound 5 µM) | relative viability ([3]; first compound 0.08 µM) | relative viability ([3]; first compound 0.253 µM) | relative viability ([3]; first compound 0.8 µM) | relative viability ([3]; first compound 2.53 µM) | relative viability ([3]; first compound 8 µM) | relative viability ([4]; first compound 0.005 µM) | relative viability ([4]; first compound 0.01581 µM) | relative viability ([4]; first compound 0.05 µM) | relative viability ([4]; first compound 0.1581 µM) | relative viability ([4]; first compound 0.5 µM) |
| --- | --- | --- | --- | --- | --- | --- | --- | --- | --- | --- | --- | --- | --- | --- | --- | --- | --- | --- | --- | --- |
| HCC-827 | 0.911 | 0.747 | 0.708 | 0.753 | 0.675 | 0.317 | 0.365 | 0.281 | 0.719 | 0.343 | 0.275 | 0.259 | 0.173 | 0.176 | 0.25 | 0.805 | 0.745 | 0.557 | 0.456 | 0.119 |
| NCI-H322M | 0.576 | 0.507 | 0.519 | 0.588 | 0.593 | 0.73 | 0.718 | 0.791 | – | 0.742 | 0.609 | 0.79 | 0.659 | 0.682 | 0.537 | 0.549 | 0.483 | 0.351 | 0.213 | 0.168 |
| NCI-H1666 | 0.869 | 0.839 | 0.862 | 0.814 | 0.817 | 0.738 | 0.734 | 0.689 | 0.666 | 0.735 | 0.783 | 0.944 | 0.831 | 0.847 | 0.785 | 0.915 | 0.843 | 0.849 | 0.733 | 0.486 |
| NCI-H1793 | 0.404 | – | 0.255 | 0.277 | 0.271 | 0.517 | 0.481 | 0.581 | 0.431 | 0.507 | 1.05 | 0.806 | 1.08 | 0.868 | 0.734 | 0.2 | 0.238 | 0.234 | 0.218 | 0.147 |
| NCI-H1437 | 0.958 | 0.929 | 0.885 | 0.873 | 0.985 | 0.604 | 0.569 | 0.541 | 0.55 | 0.578 | 0.324 | 0.328 | 0.345 | 0.311 | 0.243 | 1.01 | 0.863 | 0.837 | 0.798 | 0.365 |
| NCI-H358 | 0.97 | 0.686 | 0.848 | 0.726 | 0.442 | 0.248 | 0.212 | 0.22 | 0.216 | 0.18 | 0.163 | 0.181 | 0.189 | 0.148 | 0.155 | 0.806 | 0.542 | 0.439 | 0.149 | 0.122 |
| SW 900 | 0.654 | 0.707 | 0.686 | 0.457 | 0.635 | 0.51 | 0.454 | 0.447 | 0.439 | 0.447 | 0.449 | 0.492 | – | 0.517 | 0.316 | 0.588 | 0.547 | 0.481 | 0.311 | 0.14 |
| NCI-H1792 | 0.772 | 0.813 | 0.696 | 0.914 | 0.669 | 0.625 | 0.507 | 0.581 | 0.551 | 0.48 | 0.561 | 0.531 | 0.446 | 0.857 | 0.602 | 0.774 | 0.559 | 0.681 | 0.461 | 0.333 |
